# Measured values published in patent US9492468B2, “Methods and compositions for treatment of acute heart failure” (PERICOR THERAPEUTICS, INC., priority 2008, dated 2016).
# Where a name gives a salt, the structure may show the parent alone.
# System: dogs with advanced heart failure
# Assay: Dose escalation / bolus plus infusion study, hemodynamic and ventriculographic measures
# Assay type: in vivo, dog
# Conditions: for Effect on EF (LVEF) / Effect on ESV: dose dependent; for Hemodynamic and ventriculographic benefits after discontinuation: one hour after discontinuation of infusion
# Method: Studies were performed in purpose-bred, healthy and conditioned mongrel dogs weighing between 20 and 30 kg. The study was approved by Henry Ford Health System Institutional Animal Care and Use Committee and conformed to the National Institute of Health “Guide and Care for Use of Laboratory Animals” and the “Position of the American Heart Association on Research Animal Use” (Position of the American Heart Association on Research Animal Use. Circulation 1985; 71; 49A-50A).
# Chronic LV dysfunction and failure was produced by multiple sequential intracoronary embolizations with polystyrene Latex; coronary microembolizations were performed during cardiac catheterization under general anesthesia and sterile conditions (Sabbah H N, et al. Am J Physiol (1991) 260:H1379-84; Sabbah H N, et al. Circulation (1994) 89:2852-9; Sabbah H N, et al. Am J Cardiol 99:41 A-46A, (2007)). Anesthesia was induced using a combination of intravenous injections of oxymorphone hydrochloride (0.22 mg/kg) and diazepam (0.2-0.6 mg/kg). Plane of anesthesia was maintained throughout the study using 1% to 2% isoflurane. Left and right heart catheterizations were performed via a femoral arteriotomy and venotomy. Coronary microembolizations were discontinued when LV ejection fraction, determined angiographically, was about 25%. A period of 2 weeks was allowed after the last microembolization to ensure that infarctions produced by the last microembolizations have completely healed and heart failure was established before the study is undertaken.
# Eight heart failure dogs described in Example 1 were used. Seven of 8 dogs underwent two studies, one with active drug GP-531 tartrate and one with vehicle (placebo) and 1 of 8 dogs underwent only one active drug GP-531 study. The order of active drug and placebo was randomized and performed about one week apart. In 6 of 8 dogs, after baseline hemodynamic, and ventriculographic measurements, vehicle was administered as a continuous intravenous infusion for one hour. At the end of one hour, the active drug GP-531 tartrate was administered in 3 escalating dose of continuous intravenous infusion with each dose maintained for one hour. At the end of the last drug dose, infusion was stopped and a washout period of one hour was instituted. The same infusion rates and times between doses were used when vehicle studies were performed. At the end of each hour, hemodynamic and angiographic measurements were made. Venous blood samples were obtained at baseline and at one hour after each dose. Blood samples (at least 10 mL) were centrifuged at 3000 rpm for 10 minutes and plasma withdrawn and placed in cryostorage tubes and stored upright at −20° C. for future use. In 2 of 8 dogs, active drug was administered as bolus followed by a constant infusion for 3 hours as noted below.
# Active drug was used in dog groups as follows:
# 1. In 3 of 8 dogs, escalating doses of 30, 100 and 300 μg/kg/min GP-531 tartrate were used (Group I)
# 2. In another 3 of 8 dogs, escalating doses of 3, 10 and 30 μg/kg/min GP-531 tartrate were used (Group II).
# 3. In 1 of 8 dogs, active drug was administered as 700 μg/kg GP-531 tartrate bolus followed by a constant infusion of 10 μg/kg/min GP-531 tartrate for 3 hours.
# 4. In another 1 of 8 dogs, two active drug studies were performed. In one study, active drug was administered as 70 μg/kg bolus followed by a constant infusion of 1.0 μg/kg/min for 4 hours and in the second study, active drug was administered as 210 μg/kg bolus followed by a constant infusion of 3.0 μg/kg/min for 4 hours.
# Study Primary End-Points were: (1) change in LV ejection fraction determined from ventriculography and (2) change in LV end-systolic and end-diastolic volume determined from ventriculography.
# All hemodynamic measurements were made during left and right heart catheterizations in anesthetized dogs at each specified study time point. […]
# [1] = 1 HF dog, 210 μg/kg bolus then 3.0 μg/kg/min for 4 h
# [2] = 1 HF dog, 210 μg/kg bolus then 3.0 μg/kg/min, end of 4 h
# [3] = 1 HF dog, 700 μg/kg bolus then constant infusion 10 m/kg/min (so in the source) for 3 h
# [4] = 1 HF dog, 700 μg/kg bolus then constant infusion 10 m/kg/min (so in the source), end of 3 h
# [5] = Group I HF dogs n=3, 1 h washout after 30/100/300 μg/kg/min
# [6] = Group I HF dogs n=3, escalating 30, 100, 300 μg/kg/min, vs baseline
# [7] = Group I HF dogs n=3, escalating 30, 100, 300 μg/kg/min, vs baseline, listed as GP-531 tartrate salt
# [8] = Group II HF dogs n=3, 1 h washout after 3/10/30 μg/kg/min
# [9] = Group II HF dogs n=3, escalating 3, 10, 30 μg/kg/min, not statistically significant vs baseline
# [10] = Group II HF dogs n=3, escalating 3, 10, 30 μg/kg/min, vs baseline
smiles,measurement,setting,value
NC(=O)c1ncn(C2OC(CNCc3ccccc3)C(O)C2O)c1N (stereo not drawn) [GP-531 tartrate],Effect on CO,[1],minimal or modest changes
same,Effect on HR,[1],modest reduction
same,Effect on LVEDP,[1],modest reduction
same,Effect on SV,[1],minimal or modest changes
same,Effect on SVR,[1],minimal or modest changes
same,Effect on mAoP,[1],modest reduction
same,Effect on EDV,[2],essentially no change
same,Increase in EF,[2],44%
same,Reduction in ESV,[2],~20%
same,Effect on CO,[3],minimal or modest changes
same,Effect on HR,[3],modest reduction
same,Effect on LVEDP,[3],substantial drop
same,Effect on SV,[3],minimal or modest changes
same,Effect on SVR,[3],minimal or modest changes
same,Effect on mAoP,[3],modest reduction
same,Increase in EF,[4],30%
same,Reduction in EDV,[4],~10%
same,Reduction in ESV,[4],20%
same,Cardiac output (CO),[5],1.72 ± 0.17 L/min
same,Heart rate (HR),[5],85 ± 7 beats/min
same,LV end-diastolic pressure (LVEDP),[5],13 ± 1 mmHg
same,LV end-diastolic volume (EDV),[5],70 ± 5 mL
same,LV end-systolic volume (ESV),[5],49 ± 4 mL
same,Mean aortic pressure (mAoP),[5],73 ± 6 mmHg
same,Stroke volume (SV),[5],20 ± 2 mL
same,Systemic vascular resistance (SVR),[5],3445 ± 310 dynes-sec-cm^−5
same,Effect on CO,[6],significant increase
same,Effect on EDV,[6],modest and not statistically significant effect on reducing
same,Effect on HR,[6],no effect
same,Effect on LVEDP,[6],significantly decreased
same,Effect on SV,[6],significant increase
same,Effect on SVR,[6],decrease
same,Effect on mAoP,[6],no effect
same,Effect on EF (LVEF),[6],increased
same,Effect on ESV,[6],significantly decreased
same,Effect on EF (LVEF),[7],increase
same,Effect on ESV,[7],significant decrease
same,Hemodynamic and ventriculographic benefits after discontinuation,Group I HF dogs,attenuated but in many instances remained significantly better than baseline values
same,Cardiac output (CO),[8],1.50 ± 0.02 L/min
same,Heart rate (HR),[8],80 ± 5 beats/min
same,LV end-diastolic pressure (LVEDP),[8],12 ± 1 mmHg
same,LV end-diastolic volume (EDV),[8],59 ± 4 mL
same,LV end-systolic volume (ESV),[8],40 ± 2 mL
same,Mean aortic pressure (mAoP),[8],66 ± 3 mmHg
same,Stroke volume (SV),[8],19 ± 2 mL
same,Systemic vascular resistance (SVR),[8],3511 ± 176 dynes-sec-cm^−5
same,Effect on CO,[9],modestly increased
same,Effect on SV,[9],modestly increased
same,Effect on SVR,[9],modestly decreased
same,Effect on EDV,[10],no effects
same,Effect on HR,[10],no effect
same,Effect on LVEDP,[10],significantly decreased
same,Effect on mAoP,[10],no effect
same,Effect on EF (LVEF),[10],increased
same,Effect on ESV,[10],significantly decreased
same,Effect on EF (LVEF),"Group II HF dogs n=3, escalating 3, 10, 30 μg/kg/min, vs baseline, listed as GP-531 tartrate salt",increase
same,Hemodynamic and ventriculographic benefits after discontinuation,Group II HF dogs,attenuated but in many instances remained significantly better than baseline values
same,Adverse positive chronotropic effects,"HF dogs, iv 3 to 300 μg/kg/min",not associated with any adverse positive chronotropic effects
same,LV systolic function,"HF dogs, iv 3 to 300 μg/kg/min over at least one hour",can improve LV systolic function
same,Effect on LVEF (FIG. 3),bolus injection 700 μg/kg followed by 3 hour constant infusion 10 μg/kg/min,increase
